From patent US12391702B2, “Benzo[5,6][1,4]dioxino[2,3-b]pyridine compounds useful as IRAK4 inhibitors” (BRISTOL-MYERS SQUIBB COMPANY, priority 2020, dated 2025)

Legend:
[1] = biological target: IRAK4 (Homo sapiens (Human), UniProt Q9NWZ3); assay: IRAK4 Inhibition Assay; assay type: biochemical; settings: ATP 500 μM; IRAK4 0.6 nM; 60 min at room temperature
Experimental: The assays were performed in U-bottom 384-well plates. The final assay volume was 30 μL prepared from 15 μL additions of enzyme and substrates (fluoresceinated peptide and ATP) and test compounds in assay buffer (20 mM HEPES pH 7.2, 10 mM MgCl2, 0.015% Brij 35 and 4 mM DTT). The reaction was initiated by the combination of IRAK4 with substrates and test compounds. The reaction mixture was incubated at room temperature for 60 min. and terminated by adding 45 μL of 35 mM EDTA to each sample. The reaction mixture was analyzed on the Caliper LABCHIP® 3000 (Caliper, Hopkinton, MA) by electrophoretic separation of the fluorescent substrate and phosphorylated product. Inhibition data were calculated by comparison to no enzyme control reactions for 100% inhibition and vehicle-only reactions for 0% inhibition. The final concentrations of reagents in the assays are ATP, 500 μM; FL-IPTSPITTTYFFFKKK peptide 1.5 μM; IRAK4, 0.6 nM; and DMSO, 1.6%.

[2] = test system: Human whole blood stimulated with a TLR2 agonist (lipoteichoic acid), IL-6 levels; assay: IRAK4 Whole Blood Assay; assay type: cell-based; settings: 10 μg/mL lipoteichoic acid for 5 hours
Experimental: Human whole blood containing the anti-coagulant ACD-A was plated in 384-well plate (25 μL/well) and incubated with compounds for 60 minutes at 37° C. in a 5% CO2 incubator. The blood was stimulated with a TLR2 agonist, 10 μg/mL final concentration of lipoteichoic acid (Invivogen, San Diego, CA) in 25 μL RPMI (Gibco) for 5 hours in a 5% CO2 incubator. At the end of the incubation, plates were centrifuged at 2300 rpm for 5 minutes. Supernatants were harvested and analyzed for IL-6 levels by Flow Cytometry beads assay (BD Biosciences, San Jose, CA).

Sequence of IRAK4 (Q9NWZ3 whole entry): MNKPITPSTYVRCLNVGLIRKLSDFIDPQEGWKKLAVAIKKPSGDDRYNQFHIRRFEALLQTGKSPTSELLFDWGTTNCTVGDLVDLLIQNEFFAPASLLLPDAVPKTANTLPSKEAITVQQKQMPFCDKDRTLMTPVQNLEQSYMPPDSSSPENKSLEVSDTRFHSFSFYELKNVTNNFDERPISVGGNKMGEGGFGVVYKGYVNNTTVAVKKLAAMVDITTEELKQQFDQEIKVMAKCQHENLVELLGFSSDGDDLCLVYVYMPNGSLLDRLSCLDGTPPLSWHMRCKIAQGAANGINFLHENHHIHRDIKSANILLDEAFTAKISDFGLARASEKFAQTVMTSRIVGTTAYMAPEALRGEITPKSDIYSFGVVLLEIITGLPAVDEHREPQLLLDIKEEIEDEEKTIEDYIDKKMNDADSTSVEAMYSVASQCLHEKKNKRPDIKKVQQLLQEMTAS

Structure (SMILES)	IC50 [1] [nM]	EC50 [2] [nM]
CC(C)Nc1c(C(=O)NC(CCO)C2CC2)cnc2c1Oc1cc(C#N)ccc1O2 (centres unmarked) [Example 8, 7-cyano-N-(1-cyclopropyl-3-hydroxypropyl)-4-(isopropylamino)benzo[5,6][1,4]dioxino[2,3-b]pyridine-3-carboxamide]	220	–
COCCNC(=O)c1cnc2c(c1NC(C)C)Oc1cc(C#N)ccc1O2 [Example 5, 7-cyano-4-(isopropylamino)-N-(2-methoxyethyl)benzo[5,6][1,4]dioxino[2,3-b]pyridine-3-carboxamide]	150	–
CC(C)Nc1c(C(=O)NC[C@@H](F)C(C)(C)O)cnc2c1Oc1ccc(C#N)cc1O2 [Example 2, (R)-8-cyano-N-(2-fluoro-3-hydroxy-3-methylbutyl)-4-(isopropylamino)benzo[5,6][1,4]dioxino[2,3-b]pyridine-3-carboxamide]	8.5	1700
CC(C)Nc1c(C(=O)NCC(C)(C)CO)cnc2c1Oc1cc(C#N)ccc1O2 [Example 7, 7-cyano-N-(3-hydroxy-2,2-dimethylpropyl)-4-(isopropylamino)benzo[5,6][1,4]dioxino[2,3-b]pyridine-3-carboxamide]	270	–
CC(C)Nc1c(C(=O)NCC2(CO)CC2)cnc2c1Oc1cc(C#N)ccc1O2 [Example 11, 7-cyano-N-((1-(hydroxymethyl)cyclopropyl)methyl)-4-(isopropylamino)benzo [5,6][1,4]dioxino[2,3-b]pyridine-3-carboxamide]	440	–
CC(C)Nc1c(C(=O)N[C@H](C)CCO)cnc2c1Oc1cc(C#N)ccc1O2 [Example 10, (R)-7-cyano-N-(4-hydroxybutan-2-yl)-4-(isopropylamino)benzo[5,6][1,4]dioxino [2,3-b]pyridine-3-carboxamide]	160	–
CC(C)Nc1c(C(=O)NC2CCCOC2)cnc2c1Oc1cc(C#N)ccc1O2 (centres unmarked) [Example 9, 7-cyano-4-(isopropylamino)-N-(tetrahydro-2H-pyran-3-yl)benzo[5,6][1,4]dioxino [2,3-b]pyridine-3-carboxamide]	92	–
CCOCCNC(=O)c1cnc2c(c1NC(C)C)Oc1cc(C#N)ccc1O2 [Example 4, 7-cyano-N-(2-ethoxyethyl)-4-(isopropylamino)benzo[5,6][1,4]dioxino[2,3-b]pyridine-3-carboxamide]	82	–
CC(C)Nc1c(C(=O)N[C@H]2CC[C@H](O)CC2)cnc2c1Oc1cc(C#N)ccc1O2 [Example 6, 7-cyano-N-((1r,4r)-4-hydroxycyclohexyl)-4-(isopropylamino)benzo[5,6][1,4]dioxino[2,3-b]pyridine-3-carboxamide]	31	–
CC(C)Nc1c(C(=O)NC2CCOCC2)cnc2c1Oc1cc(C#N)ccc1O2 [Example 3, 7-cyano-4-(isopropylamino)-N-(tetrahydro-2H-pyran-4-yl)benzo[5,6][1,4]dioxino [2,3-b]pyridine-3-carboxamide]	60	–

Further lines, results first:

IC50 [1] [nM]	EC50 [2] [nM]	Structure (SMILES)
23	–	CC(C)CCNC(=O)c1cnc2c(c1NC(C)C)Oc1cc(C#N)ccc1O2 [Example 16, 7-cyano-N-isopentyl-4-(isopropylamino)benzo[5,6][1,4]dioxino[2,3-b]pyridine-3-carboxamide]
180	–	CC(C)Nc1c(C(=O)NCc2cnco2)cnc2c1Oc1cc(C#N)ccc1O2 [Example 13, 7-cyano-4-(isopropylamino)-N-(oxazol-5-ylmethyl)benzo[5,6][1,4]dioxino[2,3-b]pyridine-3-carboxamide]
34	–	CC(C)Nc1c(C(=O)N[C@H]2CC[C@H](N)CC2)cnc2c1Oc1cc(C#N)ccc1O2 [Example 17, N-((1R,4R)-4-aminocyclohexyl)-7-cyano-4-(isopropylamino)benzo[5,6][1,4]dioxino [2,3-b]pyridine-3-carboxamide]
240	–	CC(C)Nc1c(C(=O)NCC2(CO)COC2)cnc2c1Oc1cc(C#N)ccc1O2 [Example 18, 7-cyano-N-((3-(hydroxymethyl)oxetan-3-yl)methyl)-4-(isopropylamino)benzo [5,6][1,4]dioxino[2,3-b]pyridine-3-carboxamide]
140	–	CC(C)Nc1c(C(=O)NCc2nnc[nH]2)cnc2c1Oc1cc(C#N)ccc1O2 [Example 12, N-((4H-1,2,4-triazol-3-yl)methyl)-7-cyano-4-(isopropylamino)benzo[5,6][1,4]dioxino [2,3-b]pyridine-3-carboxamide]
22	–	CC(C)Nc1c(C(=O)NCCC(C)(C)O)cnc2c1Oc1cc(C#N)ccc1O2 [Example 15, 7-cyano-N-(3-hydroxy-3-methylbutyl)-4-(isopropylamino)benzo[5,6][1,4]dioxino [2,3-b]pyridine-3-carboxamide]
85	–	CC(C)Nc1c(C(=O)NC2CCNCC2)cnc2c1Oc1cc(C#N)ccc1O2 [Example 20, 7-cyano-4-(isopropylamino)-N-(piperidin-4-yl)benzo[5,6][1,4]dioxino[2,3-b]pyridine-3-carboxamide]
530	–	Cc1cc(CNC(=O)c2cnc3c(c2NC(C)C)Oc2cc(C#N)ccc2O3)on1 [Example 14, 7-cyano-4-(isopropylamino)-N-((3-methylisoxazol-5-yl)methyl)benzo[5,6][1,4]dioxino[2,3-b]pyridine-3-carboxamide]
170	–	CC(C)Nc1c(C(=O)NCc2nccs2)cnc2c1Oc1cc(C#N)ccc1O2 [Example 19, 7-cyano-4-(isopropylamino)-N-(thiazol-2-ylmethyl)benzo[5,6][1,4]dioxino[2,3-b]pyridine-3-carboxamide]
